Experimental data taken from ChEMBL document CHEMBL5233249, “Recent advancements in the development of heterocyclic anti-inflammatory agents” (Eur J Med Chem, 2020).

Tests used:
[1] = Anti-inflammatory activity assessed as protein denaturation using bovine serum albumin at 100 uM relative to control; type: functional
[2] = Anti-inflammatory activity assessed as protein denaturation using bovine serum albumin at 250 uM relative to control; type: functional
[3] = Anti-inflammatory activity assessed as protein denaturation using bovine serum albumin at 500 uM relative to control; type: functional
[4] = Anti-inflammatory activity assessed as protein denaturation using egg albumin at 100 uM relative to control; type: functional
[5] = Anti-inflammatory activity assessed as protein denaturation using egg albumin at 250 uM relative to control; type: functional
[6] = Anti-inflammatory activity assessed as protein denaturation using egg albumin at 500 uM relative to control; type: functional
Rattus norvegicus [7] = test: Anti-inflammatory activity in Carrageenan-induced-Wistar albino rat model assessed as reduction in volume of paw edema measured after 4 hrs; type: functional
RAW264.7 [8] = test: Anti-inflammatory activity in mouse RAW264.7 cells assessed as inhibition of LPS-induced TNFalpha production relative to control; type: functional; set-up: scale not given: the % may be the effect or the level left
RAW264.7 [9] = test: Anti-inflammatory activity in mouse RAW264.7 cells assessed as inhibition of LPS-induced IL-6 production preincubated for 1 hr followed by LPS addition and measured after 24 hrs by EIA relative to control; type: functional; set-up: scale not given: the % may be the effect or the level left
RAW264.7 [10] = test: Anti-inflammatory activity in mouse RAW264.7 cells assessed as inhibition of LPS-induced TNFalpha production measured after 24 hrs by EIA method relative to control; type: functional; set-up: scale not given: the % may be the effect or the level left
Rattus norvegicus [11] = test: Anti-inflammatory activity in Carrageenan-induced paw edema in Wistar albino rat assessed as inhibition of paw edema measured after 1 hr relative to control; type: functional
Rattus norvegicus [12] = test: Anti-inflammatory activity in Carrageenan-induced paw edema in Wistar albino rat assessed as inhibition of paw edema measured after 2 hr relative to control; type: functional
[13] = target: T1, Prostaglandin G/H synthase 2 (Homo sapiens, UniProt P35354); test: Inhibition of COX-2 (unknown origin) at 0.1 uM
T1 sequence (P35354 whole entry): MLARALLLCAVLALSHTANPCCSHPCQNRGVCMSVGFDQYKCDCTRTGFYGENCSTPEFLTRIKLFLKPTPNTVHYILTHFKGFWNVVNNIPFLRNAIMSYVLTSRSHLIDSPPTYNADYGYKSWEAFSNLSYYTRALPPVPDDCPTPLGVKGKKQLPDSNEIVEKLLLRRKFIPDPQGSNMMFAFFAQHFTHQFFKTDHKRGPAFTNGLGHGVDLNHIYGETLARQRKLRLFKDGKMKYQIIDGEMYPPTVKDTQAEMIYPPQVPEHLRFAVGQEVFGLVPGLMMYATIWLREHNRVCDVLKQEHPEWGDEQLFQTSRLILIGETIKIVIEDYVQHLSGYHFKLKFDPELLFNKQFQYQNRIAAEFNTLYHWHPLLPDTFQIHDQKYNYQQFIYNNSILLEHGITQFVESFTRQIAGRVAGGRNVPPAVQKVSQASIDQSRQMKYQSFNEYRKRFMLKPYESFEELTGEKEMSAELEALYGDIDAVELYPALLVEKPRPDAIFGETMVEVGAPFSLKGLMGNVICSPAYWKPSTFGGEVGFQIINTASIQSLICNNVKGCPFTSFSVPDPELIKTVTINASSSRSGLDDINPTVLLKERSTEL

Rattus norvegicus [14] = test: Anti-inflammatory activity in Carrageenan-induced paw edema in Wistar albino rat assessed as inhibition of paw edema measured after 6 hr relative to control; type: functional
Rattus norvegicus [15] = test: Anti-inflammatory activity against formalin-induced foot paw edema in PO dosed rat at 10 mg/kg assessed as inhibition of edema measured after 4 hr relative to control; type: functional
Rattus norvegicus [16] = test: Anti-inflammatory activity against Carrageenan-induced paw edema in PO dosed Wistar albino rat assessed as fold increase in inhibition of […] measured after 1 hr relative to celecoxib; type: functional
Mus musculus [17] = test: Anti-inflammatory activity against dimethylbenzene-induced auricular edema Kunming mouse model assessed as inhibition of ear edema at 50 mg/kg, po administered once daily relative to control; type: functional; set-up: scale not given: the % may be the effect or the level left
Mus musculus [18] = test: Anti-inflammatory activity against dimethylbenzene-induced auricular edema Kunming mouse model assessed as inhibition of ear edema at 100 mg/kg, po administered once daily relative to control; type: functional; set-up: scale not given: the % may be the effect or the level left
[19] = target: Prostaglandin G/H synthase 1 (Homo sapiens, UniProt P23219); test: Inhibition of COX-1 (unknown origin) at 40 uM relative to control
[20] = target: T1, Prostaglandin G/H synthase 2; test: Inhibition of COX-2 (unknown origin) assessed as inhibition at 10 uM
[21] = target: T1, Prostaglandin G/H synthase 2; test: Inhibition of COX-2 (unknown origin) at 10 uM
Mus musculus [22] = test: Anti-inflammatory activity in Carrageenan-induced paw edema mouse model assessed as inhibition of granuloma measured after 24 hrs relative to control; type: functional
Rattus norvegicus [23] = test: Anti-inflammatory activity against formalin-induced foot paw edema in Wistar rat at 5 mg/kg, po assessed as inhibition of edema measured after 4 hr relative to control; type: functional
[24] = Selectivity index, ratio of IC50 for ovine COX1 to IC50 for recombinant human COX2
Rattus norvegicus [25] = test: Anti-inflammatory activity against formalin-induced foot paw edema in PO dosed rat at 10 mg/kg assessed as reduction in volume of edema measured after 5 hr relative to control; type: functional; set-up: scale not given: the % may be the effect or the level left
Rattus norvegicus [26] = test: Anti-ulcerative activity in aspirin induced Wistar rat ulcer model assessed as inhibition of ulcer index at 20 mg/kg,po; type: functional

Prostaglandin G/H synthase 1, sequence (P23219 whole entry): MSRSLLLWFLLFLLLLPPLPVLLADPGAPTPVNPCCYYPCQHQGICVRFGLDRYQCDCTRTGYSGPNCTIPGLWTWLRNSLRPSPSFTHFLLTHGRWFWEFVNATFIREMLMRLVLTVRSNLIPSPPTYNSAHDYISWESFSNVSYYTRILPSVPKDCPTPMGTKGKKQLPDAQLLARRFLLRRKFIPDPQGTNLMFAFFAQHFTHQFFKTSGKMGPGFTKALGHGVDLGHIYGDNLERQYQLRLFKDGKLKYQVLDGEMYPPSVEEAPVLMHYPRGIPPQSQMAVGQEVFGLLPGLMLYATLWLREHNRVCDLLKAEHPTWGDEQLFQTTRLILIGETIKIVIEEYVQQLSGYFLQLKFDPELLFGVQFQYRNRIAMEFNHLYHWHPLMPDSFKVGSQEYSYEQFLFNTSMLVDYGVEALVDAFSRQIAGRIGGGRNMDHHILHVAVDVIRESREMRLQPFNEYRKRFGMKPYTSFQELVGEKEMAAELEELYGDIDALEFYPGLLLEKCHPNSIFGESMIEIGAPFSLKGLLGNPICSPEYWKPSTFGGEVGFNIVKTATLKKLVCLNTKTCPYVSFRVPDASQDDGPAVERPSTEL

Question: With `COc1ccc(NC(=O)c2cc(-c3ccncc3)n[nH]2)cc1` as the compound, how does the Activity [1] read?
Answer: Its Activity is 65%.

Question: What about the Activity [2] of the same compound?
Answer: Its Activity is 80%.

Question: And the Activity [3]?
Answer: The Activity was 90%.

Question: And the Activity [4]?
Answer: The Activity was 60%.

Question: What about the Activity [5] of the same compound?
Answer: The Activity was 85%.

Question: What about the Activity [6] of the same compound?
Answer: The Activity was 95%.

Question: Which ED50 (Rattus norvegicus [7]) does the source give for `Cc1nn(-c2ccccc2)c2c1C(c1ccccc1[N+](=O)[O-])C(C#N)=C(/N=C/c1ccccc1)O2` (stereo unspecified) here?
Answer: The ED50 was 858 µmol/kg.

Question: For `O=c1[nH]c(CCl)nc2sc3c(c12)CCCC3`, which Activity (RAW264.7 [8]) is on record?
Answer: Its Activity is 10%.

Question: What about the Activity (RAW264.7 [9]) of the same compound?
Answer: The Activity was 90%.

Question: Which Activity (RAW264.7 [10]) does the source give for `COc1cc(OC)c2c(c1)OCC/C(=C\Cc1ccccn1)C2=O` here?
Answer: The Activity was 92.5%.

Question: Which “inhibition (INH)” value (Rattus norvegicus [11]) does the source give for `CC(=O)N(CN1C(=O)/C(=C\c2nnc(-c3ccc(-c4ccncc4)cc3)s2)c2ccccc21)C1C(c2ccc(O)cc2)=NNC1S` (stereo unspecified) here?
Answer: Its value is 20%.

Question: What about the “inhibition (INH)” value (Rattus norvegicus [12]) of the same compound?
Answer: Its value is 10.53%.

Question: And the IC50 [13]?
Answer: Its IC50 is 71100 nM.

Question: What about the “inhibition (INH)” value (Rattus norvegicus [14]) of the same compound?
Answer: The value was 57.14%.

Question: For `Nc1cc(-c2ccc(Cl)cc2)nn1C1=NC2C(C=NN2c2ccccc2)C(=O)N1c1ccccc1` (stereo unspecified), which inhibition in vivo at 10 mg/kg (Rattus norvegicus [15]) is on record?
Answer: Its inhibition in vivo at 10 mg/kg is 90%.

Question: And the “fold change (FC)” value (Rattus norvegicus [16])?
Answer: Its value is 8.

Question: What does the source list for `c1ccc([Se]CC2CC(c3ccccc3)=NO2)cc1` (stereo unspecified)?
Answer: Activity (Mus musculus [17]): 51%; Activity (Mus musculus [18]): 74%

Question: With `COc1ccc(/C=C2/SC(=S)C(Nc3nc4c(cnn4-c4ccccc4)c(=O)n3-c3ccccc3)C2=O)cc1OC` (stereo unspecified) as the compound, how does the IC50 [19] read?
Answer: Its IC50 is 3540 nM.

Question: And the IC50 [20]?
Answer: The IC50 was 370 nM.

Question: What about the IC50 [21] of the same compound?
Answer: The IC50 was 780 nM.

Question: And the “inhibition (INH)” value (Mus musculus [22])?
Answer: Its value is 38.2%.

Question: And the inhibition in vivo at 5 mg/kg (Rattus norvegicus [23])?
Answer: Its inhibition in vivo at 5 mg/kg is 57.4%.

Question: For `CS(=O)(=O)c1ccc(-n2cc(/C=C3\NC(=S)N(c4ccccc4)C3=O)c(-c3ccccc3)n2)cc1`, which Selectivity Index [24] is on record?
Answer: Its Selectivity Index is 9.15.

Question: And the Activity (Rattus norvegicus [25])?
Answer: Its Activity is 56%.

Question: And the UI (Rattus norvegicus [26])?
Answer: The UI was 3.87.
